According to patent US20190054045A1, “METHODS AND COMPOSITIONS FOR TREATING SKIN CONDITIONS” (priority 2017, published 2019):

Columns and labels:
burn scar = experiment: Topical metformin to treat a burn scar on intact skin (patient case); assay type: in vivo, human; details: 250 mg/mL in petrolatum ointment, two times per day
Procedure: A patient with a burn scar from a previously treated skin cancer complaining of a raised red and itchy scar on their chest received topical metformin in petrolatum ointment at 250 mg/mL with directions to apply the lotion to the affected area (red, raised fibrotic scarred skin on chest) two times per day.

surgical defect = experiment: Topical metformin to treat scarring on open skin (surgical defect, patient case); assay type: in vivo, human; details: topical ointment 250 mg/mL twice a day; within 4 weeks; in comparison to patients healing with topical petrolatum alone; observation by physician
Procedure: A patient with a previous surgical scar from removal of skin cancer with a scalpel received topical metformin ointment at 250 mg/mL with directions to apply the ointment twice a day to the surgical defect until healed (approximately 2-4 weeks).

CN(C)C(=N)N=C(N)N [metformin]
scarring of the skin (burn scar; after one month): further improved | scarring of the skin (redness, itch, softness) (burn scar; within 14 days, observation by physician and patient): visibly reduced with less redness, itch, and increased softness | scarring and redness of area (surgical defect): minimal scaring and redness
